In patent US20110150772A1, “MODULATORS OF CARNITINE OCTANOYLTRANSFERASE IN THE TREATMENT OF ACNE, OF SEBORRHOEIC DERMATITIS OR OF HYPERSEBORRHOEA” (GALDERMA RESEARCH & DEVELOPMENT, priority 2008, published 2011):

How the values were obtained:
CROT gene expression = assay: Expression of CROT in rat epidermal split containing sebaceous glands after topical PPARgamma agonist, real-time PCR; type: in vivo; settings: topical 1% in acetone, female Fuzzy rats, standardized to 18S, versus carrier group; for CROT Relative induction - Kinetics (Hours) 0: 0 hours; for CROT Relative induction - Kinetics (Hours) 8: 8 hours; for CROT Relative induction - Kinetics (Hours) 24: 24 hours; for CROT Relative induction - Kinetics (Hours) 48: 48 hours; for CROT Relative induction - Kinetics (Hours) 96: 96 hours
Description: Animals: Species: rat • Strain: Ico: Hsd: FUZZY-fz • Gender: female • Age: 10 weeks
Number per batch: 40 (8 animals per group)
Treatment: Route of administration: topical • Compound/batch: PPARgamma agonists:
A: 5-{4-[2-(methylpyridin-2-ylamino)ethoxy]-benzyl}thiazolidine-2,4-dione
B: (2-methoxyethoxymethoxy)naphthalene-2-carboxylic acid [4′-(2,4-dioxothiazolidin-5-ylmethyl)biphenyl-3-ylmethyl]methylamide or rosiglitazone
C: (S)-2-ethoxy-3-{4-[6-(3-heptyl-1-methyl-ureido)pyridin-2-yl]phenyl}propionic acid • Doses: 1% • Carrier: acetone (001) • Duration 96 hours
Method of evaluation: The animals are weighed at the beginning and at the end of the study. Skin biopsies are taken (6 samples of skin excised per rat) in order to analyse the expression of the genes (RNA extraction, reverse transcriptase and real-time PCR). The samples are stored overnight at 4° C. before incubation in 1M sodium bromide (NaBr) for 2 hours at 37° C. After incubation, the samples are separated into epidermis or dermis. The epidermal samples are stored at […]. Under these conditions, the sebaceous glands are in the epidermal split. PCRs are carried out, beginning with the CNAs originating from the epidermal splits containing sebaceous glands from control rats or rats treated with a PPARγ agonist: the mRNA is extracted using a column and quantified. The quality of the mRNAs is measured and is represented by the 18S/28S ratio. The results are standardized with respect to 18S, expressed as relative induction versus untreated animals (carrier group). The statistical analysis is obtained using internal software based on a modified Monte Carlo statistical analysis.

[1] = tested on: CROT (carnitine O-octanoyltransferase) gene expression; assay: Expression of CROT in Fuzzy rat epidermal split after 8 days of topical treatment, Affymetrix transcriptome analysis; type: in vivo; settings: female Fuzzy rats, topical 1% once a day for 8 days, Affymetrix 1368426_at, control condition 601
Procedure: Fuzzy rat epidermal split expression data
The studies are carried out in female Fuzzy rats (Hsd: Fuzzy-fz) ten weeks old at the beginning of the study. The animals are treated at a dose of 1% (PPARg agonist rosiglitazone in solution in acetone) once a day for 8 days. Two hours after the final treatment, the animals are sacrificed by euthanasia and the skin on the back is removed. After incubation in dispase, the epidermis carrying the sebaceous glands is detached from the dermis (epidermal split). After grinding of the samples, the mRNA is prepared using Qiagen columns, in accordance with the supplier's instructions. The material thus prepared is subjected to large-scale transcriptome analysis on an Affymetrix platform. The data are subsequently standardized and, after statistical analysis, the results produced are expressed in arbitrary expression units (see below) accompanied, for each piece of data, by a statistical value for presence of the transcript (presence=1; absence=0).
Table 2: Measurement of the Expression of CROT in an Epidermal Split after 8 Days of Topical Treatment of FUZZY Rat Females with a PPARγ Agonist (Rosiglitazone) at 1%

Compound	CROT Relative induction - Kinetics (Hours) 0 (CROT gene expression)	CROT Relative induction - Kinetics (Hours) 8 (CROT gene expression)	CROT Relative induction - Kinetics (Hours) 24 (CROT gene expression)	CROT Relative induction - Kinetics (Hours) 48 (CROT gene expression)	CROT Relative induction - Kinetics (Hours) 96 (CROT gene expression)	Expression after treatment with 1% rosiglitazone [1]
CN(CCOc1ccc(CC2SC(=O)NC2=O)cc1)c1ccccn1 (centres unmarked) [A, 5-{4-[2-(methylpyridin-2-ylamino)ethoxy]-benzyl}thiazolidine-2,4-dione]	1	2.24	2.16	1.54	0.94	
CCCCCCCNC(=O)N(C)c1cccc(-c2ccc(C[C@H](OCC)C(=O)O)cc2)n1 [C, (S)-2-ethoxy-3-{4-[6-(3-heptyl-1-methyl-ureido)pyridin-2-yl]phenyl}propionic acid]	1	0.40	0.52	0.36	0.20	
CN(CCOc1ccc(CC2SC(=O)NC2=O)cc1)c1ccccn1 (centres unmarked) [rosiglitazone]						742 arbitrary expression units
